According to patent publication US10653667B2, “Drug for preventing, treating or preventing metastasis of giant cell tumor that occurs in bone or soft parts, chondrosarcoma, or osteosarcoma, local injection for arterial embolization, and artificial bone” (NIPPON CHEMIPHAR CO., LTD, priority 2013, dated 2020):

Tests used:
[1] = test system: PPARγ expression in GCTB cultured cells; details: GCTB derived from a patient; inventors' earlier reports; cited from earlier work
[2] = test system: SW1353 cells; assay: Proliferation of SW1353 cells cultured beforehand with or without GW9662; assay type: cell-based, human
Experimental: Cells of the human chondrosarcoma cell line, SW1353, were cultured in the same manner as that of Example 1 until they became sub-confluent, then, GW9662, which is an irreversible antagonist of PPARγ, was added to the cells at a final concentration of 1 μM, and the cells were cultured for 60 minutes. Then, zaltoprofen was added to the cells at various concentrations of 100, 200, 300, and 400 μM, color development was performed with Cell. Counting Kit-8 (CCK-8, Dojindo) 72 hours thereafter, absorbance was measured at 450 nm further 3 hours thereafter, and the result was compared with the absorbance observed with adding only DMSO not dissolving GW9662 (FIG. 68).

[3] = test system: H-EMC-SS cells; details: inventors' earlier reports; cited from earlier work
[4] = test system: giant cell tumor of bone; assay: Curative effect of zaltoprofen (Soleton Tablet) on patients with giant cell tumor of bone; assay type: in vivo, human
Experimental: Soleton Tablet 80 (generic name: zaltoprofen, 80 mg, Nippon Chemiphar) was administered to a patient with giant cell tumor of bone (GCTB), patient with giant cell tumor of tendon sheath (GCTT), or patient with pigmented villonodular synovitis (PVNS) at a dose of 3 tablets per day (one tablet was administered in the morning, at noon, and in the evening), and the tumor size was evaluated by MRI every several months.
Soleton Tablet 80 (generic name: zaltoprofen, 80 mg, Nippon Chemiphar) was administered to patients with giant cell tumor of bone at a dose of 3 tablets per day (one tablet was administered in the morning, at noon, and in the evening). Four weeks after the start of the administration, the tumor size was evaluated by imaging based on simple Roentgen contrast method, X-ray CT, and MRI (nuclear magnetic resonance imaging). Then, the tumors were excised from patients for whom surgical operation was possible, administration of zaltoprofen was continued at a dose of 240 mg per day (one 80 mg tablet was administered at the time of breakfast, lunch, and supper), and the tumor size was evaluated by imaging based on simple Roentgen contrast method, X-ray CT, and MRI (nuclear magnetic resonance imaging) every 16 weeks. Also for patients for whom surgical operation was difficult, administration of zaltoprofen was continued at a dose of 240 mg per day (one 80 mg tablet was administered at the time of breakfast, lunch, and supper), and the tumor size was evaluated by imaging based on simple Roentgen contrast method, X-ray CT, and MRI (nuclear magnetic resonance imaging) every 8 weeks.

[5] = test system: giant cell tumor of bone (GCTB); assay: Apoptosis analysis of operational excision sample of GCTB patient administered with zaltoprofen; assay type: in vivo, human
Experimental: An operational excision sample of a person who had been administered with 3 tablets per day of the zaltoprofen tablets, Soleton Tablet 80 (generic name: zaltoprofen, 80 mg, Nippon Chemiphar) for about 28 days for pain due to the tumor, and then subjected to the operation, and an operational excision sample of giant cell tumor of bone extracted from a patient with giant cell tumor of bone not administered with zaltoprofen (case in which tumor was excised by usual surgical operation according to standard therapy) as a control were subjected to caspase 3 staining and Tunel assay, and analyzed for the presence or absence of apoptosis. The caspase 3 protein was fluorescently detected by using Anti-ACTIVE Caspase-3-Ab (Roche) ([…]) (12-4739-81) as the primary antibody, and Donkey F2 Fragment anti-Rabbit IgG PE of eBioscience as the secondary antibody. Observation was performed with a fluorescence microscope (BZ-9000) produced by Keyence (FIG. 10).

[6] = test system: SW1353 cells; assay: Suppression of cell proliferation of chondrosarcoma cell line SW1353 (CCK-8); assay type: cell-based, human; details: drug at various concentrations
Text: The H-EMC-SS cells were obtained from the Riken BioResource Center. As the SW1353 cells, those obtained from ATCC were used.

[7] = test system: PPARγ expression in giant cell tumor of bone (GCTB); assay: PPARγ staining of operational excision sample of GCTB patient administered with zaltoprofen; assay type: in vivo, human; details: 3 tablets per day Soleton Tablet 80 for about 28 days
Experimental: An operational excision sample of a person who had been administered with 3 tablets per day of the zaltoprofen tablets, Soleton Tablet 80 (generic name: zaltoprofen, 80 mg, Nippon Chemiphar) for about 28 days for pain due to the tumor, and then subjected to the operation, and an operational excision sample of giant cell tumor of bone excised from a patient with giant cell tumor of bone not administered with zaltoprofen (case in which tumor was excised by usual surgical operation according to standard therapy) as a control were subjected to staining of PPARγ, and expression of PPARγ was analyzed by PCR. For PCR, Hs_PPARG_1_SGQuantiTect Primer Assay (200) (QT00029841) of QIAGEN was used. Observation was performed with a fluorescence microscope (BZ-9000) of Keyence (FIG. 11).

[8] = test system: synovial cells derived from rheumatism patients; details: cited from earlier work
[9] = test system: GCTB cultured cells of the case 1; assay: Fat cell differentiation of GCTB cultured cells (HCS Lipid TOX Green Neutral Lipid Stain); assay type: cell-based, human; details: zaltoprofen 10, 50, 100 μM; fat cell differentiation-inducing medium 7 to 14 days
Experimental: It has been reported that PPARγ is a transcription factor indispensable for fat cell differentiation. Therefore, the GCTB cultured cells of the aforementioned case 1 were cultured on chamber cover slide glass, and when they reached confluent, zaltoprofen was added to the cells at various concentrations (10, 50, and 100 μM). From 24 hours thereafter, the cells were cultured in a fat cell differentiation-inducing medium (STREMPRO Adipogenesis Differentiation Kit, Invitrogen) for 7 to 14 days, and differentiation into fat cells was analyzed with HCS Lipid TOX Green Neutral Lipid Stain (Invitrogen) (FIGS. 8 and 9).

[10] = test system: PPARγ expression in giant cell tumor of bone (GCTB); details: patient who had taken zaltoprofen for four weeks at 240 mg per day; inventors' earlier reports; cited from earlier work
[11] = among the 13 cases of GCTB, zaltoprofen 240 mg per day
[12] = GCTB patient, 3 tablets per day Soleton Tablet 80 for about 28 days, vs patient not administered

Compound: CC(C(=O)O)c1ccc2c(c1)CC(=O)c1ccccc1S2 (stereo not drawn) [zaltoprofen]
- expression of PPARγ in the cells of giant cell tumor of bone [1]: promoted expression of PPARγ
- cell proliferation-suppressing action after preincubation with GW9662 ([2]; SW1353, GW9662 1 μM, 60 minutes beforehand): markedly reduced by GW9662
- suppression of proliferation of SW1353 cells ([2]; zaltoprofen 100, 200, 300, 400 μM, 72 hours): suppressed by zaltoprofen in a concentration-dependent manner
- suppression of proliferation of H-EMC-SS cells [3]: suppress proliferation
- response evaluation ([4]; GCTB case a): PR (“partial response (PR)” means a state that the total of sizes of tumor has decreased by 30% or more)
- shrinkage of tumor size ([4]; GCTB case a (person, pelvis)): more than 70%
- recurrence after excision by surgical operation ([4]; GCTB case a, up to today): no recurrence has been observed
- diameter of the giant cell tumor of bone after taking zaltoprofen ([4]; GCTB case c, proximal part of left fibula, about nine weeks, 23.3 mm before): 21.0 mm
- diameter of the giant cell tumor of bone after taking zaltoprofen ([4]; GCTB case d, distal part of right tibia, about eight weeks, 21.7 mm before): 20.5 mm
- change of giant cell tumor of bone ([4]; GCTB case g): did not shrink, but it also did not grow
- KPS score after taking zaltoprofen ([4]; GCTB case g, score 80 before): 100
- growth of the giant cell tumor of bone ([4]; GCTB case j (Zometa and artery embolization used in combination)): about 6%
- KPS score after taking zaltoprofen ([4]; GCTB case j, score 50 before): 90
- growth of the giant cell tumor of bone ([4]; GCTB case k): about 10%
- KPS score after taking zaltoprofen ([4]; GCTB case k, score 80 before): 90
- increase of the size of the giant cell tumor of bone ([4]; GCTB case l (printed case 1; left knee part), took only about a half of the prescribed dose): 19.8%
- response evaluation ([4]; GCTB case m (printed case in; person, proximal part of right tibia, multiple metastases to the lung)): PD (“progressive disease (PD)” means a state that the total of sizes of tumor has increased by 20% or more, and increased by 5 mm or more in terms of absolute value, or a state that new lesion has appeared)
- KPS score after taking zaltoprofen ([4]; GCTB case m, score 90 before): 100
- number of cases with hardening of bones on X-ray CT images ([4]; GCTB cases a, b, d, g, i, and j): 6 cases
- KPS score after taking zaltoprofen ([4]; GCTB cases a, c, and d, score 80 before): 90
- change of giant cell tumors of bone ([4]; GCTB cases a, c, d, e, and f, no treatment except zaltoprofen): shrank
- new metastasis during the taking of zaltoprofen ([4]; GCTB patients): any new metastasis of giant cell tumor of bone was not observed
- recurrence during the taking of zaltoprofen after ablative operation ([4]; GCTB patients subjected to ablative operation): no recurrence of giant cell tumor of bone could be confirmed
- number of cases diagnosed partial response (PR) [4, 11]: one
- number of cases diagnosed progressive disease (PD) [4, 11]: one
- cases in which the KPS score worsened ([4]; cases of giant cell tumor of bone who took zaltoprofen): no case in which the KPS score worsened
- MRI finding indicated by arrows ([4]; recurrence of GCTB in the pelvic part (case a), after two months (FIG. 35) and four months (FIG. 36)): tumor necrosis region
- tumor size by MRI ([4]; recurrence of GCTB in the pelvic part (person; case a), 3 tablets per day, after two months and four months): gradual shrinkage of the tumor
- cells found in excised bone tissues at ablative operation ([5]; GCTB patient who had taken zaltoprofen over four weeks at 240 mg per day, fat cell-like cells existed instead): cells characteristic to bone giant cells did not exist in the excised bone tissues
- Tunel-positive cells in excision sample [5, 12]: could be confirmed
- caspase 3-positive cells in excision sample [5, 12]: could be confirmed
- suppression of cell proliferation (absorbance at 450 nm) [6]: suppressed proliferation
- fat cell differentiation in excision sample [7]: fat cell differentiation could be confirmed
- PPARγ-expressing cells in excision sample ([7]; vs patient not administered): PPARγ-expressing cells could be confirmed
- activation of PPARγ [8]: activated PPARγ
- apoptosis [8]: caused apoptosis
- suppression of proliferation of the cells [8]: suppress proliferation
- positive images obtained with HCS Lipid TOX Green Neutral Lipid Stain (differentiation into fat cells) [9]: increased in a zaltoprofen concentration-dependent manner
- cells observed instead of the tumor [10]: fat cell-like cells showing enhanced expression of PPARγ were observed
